Results reported in patent US9957270B2, “Fused pyrimidine-based hydroxamate derivatives” (Agency for Science, Technology and Research, priority 2014, dated 2018).

Assays:
[1] = biological target: HDAC (HeLa nuclear extracts); assay: HDAC enzyme assay, HeLa nuclear extracts; settings: read-out: In Vitro Enzymatic IC50 HDAC (HeLa)
HDAC1 = HDAC1 (Homo sapiens, UniProt Q13547); assay: HDAC enzyme assay, recombinant HDAC1
MV-4-11 = assay: cells; settings: Homo sapiens, MV4-11, 72 h, read-out: In Vitro Cellular IC50 MV-4-11
COLO 205 = assay: cells; settings: Homo sapiens, COLO 205, 72 h, read-out: In Vitro Cellular IC50 COLO 205
K-562 = assay: Anti-proliferative assay (cellular IC50), K-562; settings: Homo sapiens, K562, 72 h, read-out: In Vitro Cellular IC50 K-562
PC-3 = assay: Anti-proliferative assay (cellular IC50), PC-3; settings: Homo sapiens, PC-3, 72 h, read-out: In Vitro Cellular IC50 PC-3
MCF7 = assay: Anti-proliferative assay (cellular IC50), MCF7; settings: Homo sapiens, MCF7, 72 h, read-out: In Vitro Cellular IC50 MCF7

Sequence of HDAC1 (Q13547 whole entry): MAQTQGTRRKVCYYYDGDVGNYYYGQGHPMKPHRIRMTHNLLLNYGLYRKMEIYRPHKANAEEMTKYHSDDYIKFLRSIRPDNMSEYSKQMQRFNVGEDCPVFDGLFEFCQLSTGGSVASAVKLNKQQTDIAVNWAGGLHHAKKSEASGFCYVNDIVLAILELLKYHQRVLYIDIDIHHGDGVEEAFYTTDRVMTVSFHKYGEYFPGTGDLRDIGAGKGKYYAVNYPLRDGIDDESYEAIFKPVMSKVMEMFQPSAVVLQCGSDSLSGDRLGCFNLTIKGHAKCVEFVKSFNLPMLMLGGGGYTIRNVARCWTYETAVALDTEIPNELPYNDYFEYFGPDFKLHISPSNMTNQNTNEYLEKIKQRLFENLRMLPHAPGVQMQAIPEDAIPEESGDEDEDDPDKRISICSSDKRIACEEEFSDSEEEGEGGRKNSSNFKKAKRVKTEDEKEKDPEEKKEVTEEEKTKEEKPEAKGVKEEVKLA

Structure (SMILES)	IC50 [1]	IC50 (MV-4-11)	IC50 (COLO 205)	other results
CC(C)n1cnc2c(-c3ccc(OCCCCC(=O)NO)cc3)nc(N3CCOCC3)nc21 [compound 14, N-hydroxy-5-(4-(9-isopropyl-2-morpholino-9H-purin-6-yl)phenoxy)pentanamide]	100 to 1000 nM			
CCN(CC)c1nc2c(-c3cnc(N)nc3)nc(N3CCOCC3)nc2n1CCCC(=O)NO [compound 28, 4-(6-(2-aminopyrimidin-5-yl)-8-(diethylamino)-2-morpholino-9H-purin-9-yl)-N-hydroxybutanamide]	1000 to 10000 nM			IC50 (HDAC1): 1000 to 10000 nM
COc1ccc(-c2nc(N3CCOCC3)c3ncn(CCCCC(=O)NO)c3n2)cn1 [compound 58, N-hydroxy-5-(2-(6-methoxypyridin-3-yl)-6-morpholino-9H-purin-9-yl)pentanamide]	100 to 1000 nM	500 to 2000 nM	2000 to 10000 nM	IC50 (K-562): 2000 to 10000 nM
CC(C)n1cnc2c(-c3cccc(NC(=O)CCCC(=O)NO)c3)nc(N3CCOCC3)nc21 [compound 9, N^1-hydroxy-N^5-(3-(9-isopropyl-2-morpholino-9H-purin-6-yl)phenyl)glutaramide]	100 to 1000 nM			
CC(C)n1cnc2c(-c3cccc(CNCc4ccc(C(=O)NO)cc4)c3)nc(N3CCOCC3)nc21 [compound 35, N-hydroxy-4-(((3-(9-isopropyl-2-morpholino-9H-purin-6-yl)benzyl)amino)methyl)benzamide]	100 to 1000 nM			
CCn1c(CN(C)Cc2ccc(/C=C/C(=O)NO)cc2)nc2c(N3CCOCC3)nc(-c3ccc(NS(C)(=O)=O)cc3)nc21 [compound 94, (E)-3-(4-((((9-ethyl-2-(4-(methylsulfonamido)phenyl)-6-morpholino-9H-purin-8-yl)methyl)(methyl)amino)methyl)phenyl)-N-hydroxyacrylamide]	100 to 1000 nM	500 to 2000 nM	2000 to 10000 nM	IC50 (K-562): 2000 to 10000 nM
CC(C)n1cnc2c(-c3cccc(COCCCCC(=O)NO)c3)nc(N3CCOCC3)nc21 [compound 23, N-hydroxy-5-((3-(9-isopropyl-2-morpholino-9H-purin-6-yl)benzyl)oxy)pentanamide]	10 to 100 nM			IC50 (HDAC1): 10 to 100 nM
CCCn1cnc2c(-c3ccc(F)c(OCCCC(=O)NO)c3)nc(N3CCCC3)nc21 [compound 66, 4-(2-fluoro-5-(9-propyl-2-(pyrrolidin-1-yl)-9H-purin-6-yl)phenoxy)-N-hydroxybutanamide]	100 to 1000 nM	500 to 2000 nM	2000 to 10000 nM	IC50 (PC-3): 2000 to 10000 nM
CC(C)n1cnc2c(-c3ccc(COCC(=O)NO)cc3)nc(N3CCOCC3)nc21 [compound 32, N-hydroxy-2-((4-(9-isopropyl-2-morpholino-9H-purin-6-yl)benzyl)oxy)acetamide]	1000 to 10000 nM			
CC(C)n1cnc2c(-c3ccc(OCCCC(=O)NO)cc3)nc(N3CCOCC3)nc21 [compound 13, N-hydroxy-4-(4-(9-isopropyl-2-morpholino-9H-purin-6-yl)phenoxy)butanamide]	1000 to 10000 nM			
CCn1c(CN(C)Cc2ccc(/C=C/C(=O)NO)cc2)nc2c(N3CCOCC3)nc(Cl)nc21 [compound 95, (E)-3-(4-((((2-chloro-9-ethyl-6-morpholino-9H-purin-8-yl)methyl)(methyl)amino)methyl)phenyl)-N-hydroxyacrylamide]	100 to 1000 nM	500 to 2000 nM	> 10000 nM	IC50 (K-562): 2000 to 10000 nM
CC(C)n1cnc2c(-c3cccc(COCC(=O)NO)c3)nc(N3CCOCC3)nc21 [compound 42, N-hydroxy-2-((3-(9-isopropyl-2-morpholino-9H-purin-6-yl)benzyl)oxy)acetamide]	100 to 1000 nM			
CC(C)n1cnc2c(-c3cccc(NC(=O)CCCCCCCC(=O)NO)c3)nc(N3CCOCC3)nc21 [compound 8, N^1-hydroxy-N^9-(3-(9-isopropyl-2-morpholino-9H-purin-6-yl)phenyl)nonanediamide]	10 to 100 nM			
CC(C)n1cnc2c(-c3ccc(OCCCCCC(=O)NO)cc3)nc(N3CCOCC3)nc21 [compound 15, N-hydroxy-6-(4-(9-isopropyl-2-morpholino-9H-purin-6-yl)phenoxy)hexanamide]	100 to 1000 nM			
CC(C)n1c(NCc2ccc(C(=O)NO)cc2)nc2c(-c3cnc(N)nc3)nc(N3CCOCC3)nc21 [compound 80, 4-(((6-(2-aminopyrimidin-5-yl)-9-isopropyl-2-morpholino-9H-purin-8-yl)amino)methyl)-N-hydroxybenzamide]				IC50 (HDAC1): 100 to 1000 nM
Nc1ccc(-c2nc(N3CCOCC3)c3ncn(CCCCC(=O)NO)c3n2)cn1 [compound 59, 5-(2-(6-aminopyridin-3-yl)-6-morpholino-9H-purin-9-yl)-N-hydroxypentanamide]	1000 to 10000 nM	500 to 2000 nM	> 10000 nM	IC50 (K-562): > 10000 nM

Structure (SMILES)	IC50 [1]	IC50 (MV-4-11)	IC50 (COLO 205)	other results
Cc1c(CN2CCN(C(=O)[C@H](C)O)CC2)sc2c(N3CCOCC3)nc(-c3cnc(N)nc3)nc12 [GDC-0980, reference compound]		> 10000 nM	< 500 nM	IC50 (MCF7): 2000 to 10000 nM; IC50 (K-562): 2000 to 10000 nM
O=C(CCCCCCn1cnc2c(N3CCCC3)nc(N3CCCC3)nc21)NO [compound 99, 7-(2,6-di(pyrrolidin-1-yl)-9H-purin-9-yl)-N-hydroxyheptanamide]	< 10 nM	500 to 2000 nM	2000 to 10000 nM	IC50 (PC-3): 2000 to 10000 nM
CCn1c(CN(C)Cc2ccc(/C=C/C(=O)NO)cc2)nc2c(N3CCOCC3)nc(-c3ccc(OC)nc3)nc21 [compound 93, (E)-3-(4-((((9-ethyl-2-(6-methoxypyridin-3-yl)-6-morpholino-9H-purin-8-yl)methyl)(methyl)amino)methyl)phenyl)-N-hydroxyacrylamide]	1000 to 10000 nM	500 to 2000 nM	2000 to 10000 nM	IC50 (MCF7): 2000 to 10000 nM; IC50 (K-562): 2000 to 10000 nM; IC50 (PC-3): 2000 to 10000 nM
CC(C)n1cnc2c(-c3cccc(OCCCCCCC(=O)NO)c3)nc(N3CCOCC3)nc21 [compound 12, N-hydroxy-7-(3-(9-isopropyl-2-morpholino-9H-purin-6-yl)phenoxy)heptanamide]	10 to 100 nM			
CC(C)n1cnc2c(-c3ccc(F)c(OCCCC(=O)NO)c3)nc(N3CCCC3)nc21 [compound 63, 4-(2-fluoro-5-(9-isopropyl-2-(pyrrolidin-1-yl)-9H-purin-6-yl)phenoxy)-N-hydroxybutanamide]	10 to 100 nM	500 to 2000 nM	2000 to 10000 nM	IC50 (PC-3): 2000 to 10000 nM
CC(C)n1cnc2c(-c3ccc(OCC(=O)NO)cc3)nc(N3CCOCC3)nc21 [compound 33, N-hydroxy-2-(4-(9-isopropyl-2-morpholino-9H-purin-6-yl)phenoxy)acetamide]	1000 to 10000 nM			
CC(C)n1cnc2c(-c3ccc(COCCCCC(=O)NO)cc3)nc(N3CCOCC3)nc21 [compound 20, N-hydroxy-5-((4-(9-isopropyl-2-morpholino-9H-purin-6-yl)benzyl)oxy)pentanamide]	100 to 1000 nM			
CCCn1cnc2c(-c3ccc(F)c(OCCCC(=O)NO)c3)nc(N3CCOCC3)nc21 [compound 69, 4-(2-fluoro-5-(2-morpholino-9-propyl-9H-purin-6-yl)phenoxy)-N-hydroxybutanamide]	100 to 1000 nM	500 to 2000 nM	2000 to 10000 nM	IC50 (PC-3): 2000 to 10000 nM
CC(C)n1cnc2c(-c3cccc(CNCCCCCC(=O)NO)c3)nc(N3CCOCC3)nc21 [compound 36, N-hydroxy-6-((3-(9-isopropyl-2-morpholino-9H-purin-6-yl)benzyl)amino)hexanamide]	10 to 100 nM			
CCn1cnc2c(-c3ccc(F)c(OCCCC(=O)NO)c3)nc(N3CCOCC3)nc21 [compound 68, 4-(5-(9-ethyl-2-morpholino-9H-purin-6-yl)-2-fluorophenoxy)-N-hydroxybutanamide]	100 to 1000 nM	500 to 2000 nM	2000 to 10000 nM	IC50 (PC-3): 2000 to 10000 nM
CC(C)n1cnc2c(-c3cccc(OCCCCCC(=O)NO)c3)nc(N3CCOCC3)nc21 [compound 11, N-hydroxy-6-(3-(9-isopropyl-2-morpholino-9H-purin-6-yl)phenoxy)hexanamide]	10 to 100 nM			
CC(C)n1cnc2c(-c3cccc(CN4CCC(C(=O)NO)CC4)c3)nc(N3CCOCC3)nc21 [compound 34, N-hydroxy-1-(3-(9-isopropyl-2-morpholino-9H-purin-6-yl)benzyl)piperidine-4-carboxamide]	1000 to 10000 nM			
CC(C)n1cnc2c(-c3ccc(COCCCCCCC(=O)NO)cc3)nc(N3CCOCC3)nc21 [compound 22, N-hydroxy-7-((4-(9-isopropyl-2-morpholino-9H-purin-6-yl)benzyl)oxy)heptanamide]	1000 to 10000 nM			
CC(C)n1cnc2c(-c3ccc(COCCCCCC(=O)NO)cc3)nc(N3CCOCC3)nc21 [compound 21, N-hydroxy-6-((4-(9-isopropyl-2-morpholino-9H-purin-6-yl)benzyl)oxy)hexanamide]	100 to 1000 nM			
O=C(CCCCCn1cnc2c(N3CCOCC3)nc(-c3ccc(F)c(OCCO)c3)nc21)NO [compound 65, 6-(2-(4-fluoro-3-(2-hydroxyethoxy)phenyl)-6-morpholino-9H-purin-9-yl)-N-hydroxyhexanamide]	< 10 nM	> 10000 nM	> 10000 nM	IC50 (PC-3): > 10000 nM
CC(C)n1cnc2c(-c3ccc(OCCCCCCC(=O)NO)cc3)nc(N3CCOCC3)nc21 [compound 16, N-hydroxy-7-(4-(9-isopropyl-2-morpholino-9H-purin-6-yl)phenoxy)heptanamide]	100 to 1000 nM			
